Laboratory results as given in US8507547B2, “Anti-fatigue agents and oral compositions containing andrographolide as active ingredient” (Suntory Holdings Limited, priority 2007, dated 2013).

Tested on: Balb/c mice
Assay: Water-immersion and sleep-disturbance test (weight-loaded forced swimming test, swimming time)
Format: in vivo
Source text: The first test is measurement of a swimming time in a water-immersion and sleep-disturbance test. This is described in detail below in Example 1. Mice raised in an environment, such as a water-immersed environment, where they were not allowed to take enough sleep or to take a comfortable posture so that they could take neither physical nor mental rest were weighted and forced to swim, and a length of time that passed until noses of the mice sank under the water for a period of 10 seconds or longer was measured (weight-loaded forced swimming test) to determine their fatigue level.
That is to say, since this animal model is a physical and mental fatigue model as well as an organ fatigue model described below, anti-fatigue action against physical and/or mental fatigue would be confirmed if the swimming time becomes longer as a result of administration of the test substance. Such anti-fatigue action is considered to be involved in reduction in fatigue stress, maintenance of physical energy under fatigue conditions (enhancement of body strength), improvement in endurance, and the like.
Effect of andrographolide on fatigue from water immersion and sleep disturbance was examined using a partially modified method of Tanaka et al. (Neuroscience Let. 352, 159-162, 2003). […] Four out of the five groups were reared as water-immersed groups; the groups were kept in cages in such a manner that each of the cages was filled with tap water at 23° C. with a water depth of 7 mm, instead of a floor covering, so that the mice were immersed in water and deprived of sleep. The mice were immersed in water for two days, andrographolide (Aldrich corp., purity 98%) was forcibly administered orally to the mice with doses of 0.5, 2, 8 mg per kilogram of body weight once daily during the two days (water-immersed and andrographolide-administered group). As a control group, one of the groups was immersed in water for two days, and distilled water was forcibly given orally to the group once daily during the two days (water-immersed control group). The remaining one of the five groups was reared as a normally-reared group; this group was kept in a cage with a normal floor covering, and distilled water was forcibly given orally to the group once daily during the two-day rearing (normally-reared control group). After the two days, each of the mice was provided with a weight corresponding to 8% of its body weight, which weight was attached to its tale, and then the mice were forced to swim in a water tank having a diameter of 18 cm and filled with water having a depth of 30 cm. A length of time that passed until the mice sank under water for a period of 10 seconds or longer (swimming time) was measured (weight-loaded forced swimming test).
The swimming time of the mice of the water-immersed group was shorter than that of the mice of the normally-reared group because of fatigue from the water immersion and sleep disturbance. The effect of andrographolide on the fatigue from the water immersion and sleep disturbance was examined by determining recovery of a reduction in the swimming time of the mice of the water-immersed group after the administration of andrographolide.
In accordance with the procedure described in Example 1, effect on water-immersion and sleep-disturbance fatigue was examined in a case in which andrographolide was administered alone to mice, a case in which alpha-lipoic acid was administered alone to mice, and a case in which a combination of andrographolide and alpha-lipoic acid was administered to mice. Eight-week-old male Balb/c mice were used as a test animal. […] Four out of the five groups served as water-immersed groups, and each of the groups was kept in a cage filled with tap water at 23° C. with a water depth of 7 mm, instead of a floor covering, so that the mice were immersed in water and deprived of sleep. […]

## O=C(O)CCCCC1CCSS1 (stereo not drawn) [alpha-lipoic acid, 1,2-dithiolane-3-pentanoic acid, reference compound]
Example 5, FIG. 5, andrographolide 0.25 mg/kg (5a), alpha-lipoic acid 50 mg/kg (5b) or both (5c), orally once daily during two days of water immersion
  shortening of the swimming time: prevented from shortening
Example 5, swimming time of normally-reared group minus water-immersed control group = 100%, andrographolide 0.25 mg/kg, alpha-lipoic acid 50 mg/kg, alone or combined
  increase rate of the swimming time: 13%
alpha-lipoic acid 50 mg/kg alone or with andrographolide 0.25 mg/kg, during fatigue stress
  anti-fatigue action in the fatigue animal model of mice: anti-fatigue action was produced
